± gives the expanded uncertainty stated by the source.
Conditions: 298 K; 101.33 kPa; Crystal; X-ray diffraction

mass density | SMILES
1268 ± 2 kg/m3 | CCCCCCCCC[NH3+].O=P([O-])(O)O [1-nonylammonium dihydrogen phosphate]
1282 ± 2 kg/m3 | CCCCCCCC[NH3+].O=P([O-])(O)O [1-octanaminium dihydrogen phosphate]
